Measured values: patent US4879313A, “Novel platelet-aggregation inhibitors” (Mosanto Company, priority 1988, dated 1989)

Tests used:
[1] = tested on: ADP-induced platelet aggregation in human PRP; experiment: In-vitro human platelet aggregation in PRP (ADP-induced); assay type: cell-based; settings: for HUMAN PRP % INHIBITION AT 10^-4 M: compound at 10^-4 M, human platelet-rich plasma; for IC50: human PRP, linear regression of the dose response curve
Protocol: In one assay, platelet aggregation is examined in platelet-rich plasma which also is rich in fibrinogen and other plasma proteins. The % inhibition is determined for the test compound by comparing the extent of platelet aggregation in the presence and absence of the test compound.
Healthy male or female donors who have not taken any antiplatelet drugs for at least 2 weeks were fasted for 8 hours prior to drawing blood; then 30 ml whole blood was collected using a butterfly needle and 30 cc plastic syringe with 3 ml of 0.129 M buffered sodium citrate (3.8%). The syringe was rotated carefully as blood was drawn to mix the citrate. Platelet-richplasma (PRP) was prepared by centrifugation at 100×g for 10 minutes at room temperature, allowing the centrifuge to coast to a stop without braking. The PRP was removed from the blood with a plastic pipette and placed in a plastic capped, 50 ml Corning conical sterile centrifuge tube which was held at room temperature. Platelet poor plasma (PPP) was prepared by centrifuging the remaining blood at 2000×g for 15 minutes at room temperature allowing the centrifuge to coast to a stop without braking. The PRP was adjusted with PPP to a count of 2-3×10^8 platelets per ml. 400 μl of the PRP preparation and 50 μl of the compound to be tested or saline were preincubated for 1 minute at 37° C. in a Payton aggregometer (Payton Scientific, Inc., Buffalo, N.Y.). 50 μl of adenosine 5'-diphosphate (ADP) (50 μM) was added to the cuvettes and the aggregation was monitored for 1 minute. All compounds are tested in duplicate. Results are calculated as follows: Percent of control=[(maximal OD minus initial OD of compound) divided by (maximal OD minus initial OD of control saline)]×100. The % inhibition=100-(percent of control).
The compounds tested and their activity results in % inhibition at 10^-4 M and median inhibitory concentration (IC50) were as recorded in Table 1.

[2] = tested on: collagen induced rat thrombocytopenia (platelet aggregation); experiment: In vivo rat thrombocytopenia (collagen induced)
Protocol: In another test, the effect of the peptide mimetic compound on collagen induced thrombocytopenia (platelet aggregation) is measured in vivo in the rat. Again, the % inhibition is determined for the test compound and compared against a saine or ethanol vehicle in the absence of the test compound.
Male rats [Charles River, CRL:CD(SD), 400-450 g] were used. The rats were anesthetized with Na pentabarbital (65 mg/kg, Vet Labs, Limited, lnc., Lenexa, Kan.). Two incisions were made to expose both jugular veins. Using an infusion pump (Harvard Apparatus, South Natick, Mass.) and a 5 cc syringe with a 19 g. butterfly, the test compound or vehicle was infused into the left jugular vein at a rate of 0.39 ml/min for 3 min. After 2 min of compound/vehicle infusion, collagen (60 μg/kg) (Helena Laboratories,Beaumont, Tex.) was injected with a one ml syringe into the right jugular vein. The body cavity was opened and the vena cava was exposed for blood sampling. One min after the collagen injection, compound infusion was stopped and blood was sampled from the vena cava (within 30 sec) with a 3 cc syringe containing […] of 4.5% EDTA/Tris (0.1 M) (pH 7.35) plus 150 μM indomethacin. Platelet rich plasma (PRP) was prepared by centrifuging the blood at 126×g for 10 min. Five μ1 of PRP was counted in 20 ml of Isoton®III in a Coulter Counter.
Percent inhibition of collagen induced aggregation was calculated by comparison of the platelet counts in animals that were treated with test compound and collagen (a) with platelet counts for animals receiving no collagen (non-aggregated control) and (b) with platelet counts for animals receiving vehicle and collagen (aggregated control).
The % inhibition of platelet aggregation in vivo and the median effective dose (ED50) of the test compounds are set forth in the following Table II.

SMILES | HUMAN PRP % INHIBITION AT 10^-4 M [1] [%] | % INHIBITION AT 1 mg/kg ([2]; 1 mg/kg, infusion into jugular vein, collagen 60 μg/kg, rat) [%] | effective dose relative to that required for equivalent inhibitory activity by Arg-Gly-Asp-(O-methyl-Tyr)-NH2 ([2]; in vivo thrombocytopenia assay, fraction of reference dose) | ED50 ([2]; infusion into jugular vein, collagen induced thrombocytopenia, rat) [mg/kg] | ED50 (orally active in rats) ([2]; oral, rats) [mg/kg] | IC50 [1] [µM]
COc1ccc(CCNC(=O)[C@H](CC(=O)O)NC(=O)CCCCCCNC(=N)N)cc1 [7-guanidino-heptanoyl-Asp--2-(4-methoxy-phenyl)ethyl amide] | 43 |  |  |  |  | 
COc1ccc(CCNC(=O)C(CC(=O)O)NC(=O)CCCCCCCNC(=N)N)cc1 (centres unmarked) [8-guanidino-octanoyl-Asp-2-(4-methoxyphenyl)ethyl amide] | 100 | 67.05 | about one eighth | 0.07 | 7.8 | 
COc1ccc(CCNC(=O)[C@H](CC(=O)O)NC(=O)CCCCCCCNC(=N)N)cc1OC [8-guanidino-octanoyl-Asp--2-(3,4-dimethoxy-phenyl)ethyl amide] | 100 |  |  |  |  | 12
COc1ccc(CNC(=O)[C@H](CC(=O)O)NC(=O)CCCCCCCNC(=N)N)cc1 [8-guanidino-octanoyl-Asp--4-methoxybenzyl amide] | 100 |  |  |  |  | 33
N=C(N)NCCCCCCCC(=O)N[C@@H](CC(=O)O)C(=O)N[C@@H](Cc1ccc(-c2ccccc2)cc1)C(N)=O [8-guanidino-octanoyl-Asp--(4-phenyl)-phenylalanine amide] | 100 |  |  |  |  | 17
COc1ccc(CCNC(=O)[C@H](CC(=O)O)NC(=O)CCCCCCCCNC(=N)N)cc1 [9-guanidino-nonanoyl-Asp-2-(4-methoxyphenyl)ethyl amide] | 100 |  |  |  |  | 27
COc1ccc(CCNC(=O)[C@H](CC(=O)O)NC(=O)CCCCCCCCCNC(=N)N)cc1 [10-guanidino-decanoyl-Asp--2-(4-methoxy-phenyl)ethyl amide] | 65 |  |  |  |  | 70
COc1ccc(CCNC(=O)[C@H](CC(=O)O)NC(=O)CNCCCCNC(=N)N)cc1 [N--(4-guanidinobutyl)-Gly--Asp--2-(4-methoxy-phenyl)ethyl amide] | 0 |  |  |  |  | 
